Results reported in patent US9044474B2, “Compositions and methods for increasing drug efficacy in cancer” (The Ohio State University, priority 2010, dated 2015).
Structures can show the parent of a compound that is named as a salt.

Key:
CLL cells [1] = assay: LC3 fluorescence in CLL cells from patients treated with flavopiridol in clinic; format: in vivo, human
Method: In this trial, CLL cells were collected pre- and post-therapy 4.5 hours, day 1 (n=16). By confocal fluorescence microscopy, both increased autophagosome formation (P=0.0011) and fusion with lysosomes is observed (FIG. 3F). […] The level of autophagy, as assessed by LC3 fluorescence intensity, was overall greater in non-responders versus responders in both pre- and post-treatment samples (P=0.018); however, the increase in intensity at 4.5 hours post- vs. pre-treatment was only slightly higher for non-responders compared to responders (fold change of 2.51 vs. 1.82, P=0.3445). […] Collectively, these studies provide evidence that our in vitro observations are relevant to the clinical setting.
After 4 hours exposure to agents, cells were washed in phosphate-buffered saline (PBS) and made adherent on a microscope slide by centrifugation in a Cytospin3 (Shandon) centrifuge. Immediately after cytospin, cells were fixed in cold acetone. Next, the cells were incubated in blocking solution (2% bovine serum albumin in PBS) and stained for LC3 (Cell Signaling, Boston, Mass.)) and Lamp2 (Santa Cruz Biotechnology, Santa Cruz, Calif.) by incubating separately with the respective primary antibodies over night, in 4° C., followed by incubation with fluorescent secondary antibodies (Invitrogen, Carlsbad, Calif.): Alexa fluor 594 (red) anti-rabbit for LC3 and Alexa fluor 488 (green) anti-mouse for Lamp2. Nuclei were stained blue with DAPI (Vector Laboratories, Burlingame, Calif.). Images were taken using a 60× objective and 4× digital zoom with Olympus Fluoview 1000 Laser Scanning Confocal microscope at the Ohio State University Campus Microscopy and Imaging Facility. ATF6 antibody was purchased from LifeSpan Biosciences (Seattle, Wash.) and Nrf2 was from Santa Cruz Biotechnology (Santa Cruz, Calif.). Nuclei were evaluated for ATF6 and Nrf2 using confocal microscopy to collect Z stacks, approximately 45 slices per cell, 0.2 μm each.
LC3 intensity and number of dots per cell were both assessed in the fluorescence images. Integrated intensity was measured using Metamorph v.7.0. […] To quantify co-localization, two binary nuclei images—red (R) and green (G)—are obtained. The correlation value is calculated as the number of white pixels of (R&G) divided by the number of pixels of (RIG), where (R&G) is the intersection of R and G, and (RIG) is the union of R and G. The program used for cell counts and measurement of correlation index is based on MatLab software (Natick, Mass.) and it was developed by members of Department of Biomedical Informatics, The Ohio State University.
For the quantification of LC3 fluorescence in serial samples (in vivo data), CLL patients were classified as either “no response” (N=10) or “partial response” (N=6). […]

PERK = PERK activity by eIF2α phosphorylation immunoblot in CLL cells; format: cell-based, human
Method: (§1) Proteins extracted from whole cell lysates (50 μg/lane) were separated on polyacrylamide gels and transferred on nitrocellulose membrane. Antibodies used for immunoblots included LC3, IRE1α, TRAF2, PI3K III, ATG4C, ATG5-12, UVRAG, Beclin-1 (Cell Signaling, Boston, Mass.), GAPDH, Nrf2, ASK1, ULK1 (Santa Cruz Biotechnology), and Bif-1, ATG14-Barkor (Sigma-Aldrich, St Louis, Mo.). Species-appropriate secondary antibodies were obtained from BioRad Laboratories (Hercules, Calif.). Following antibody incubations, proteins were detected using a chemiluminescent substrate (BioRad Laboratories). For co-immunoprecipitations, TrueBlot beads (eBiosciences, San Diego, Calif.) and One-hour IP Western kit (GenScript, Piscataway, N.J.) were used according to manufacturer protocols. Quantification was done using FluorChem Q (Alpha Innotech, San Leandro Calif.).

CLL cells [2] = assay: LC3 confocal immunofluorescence (autophagosome formation) in CLL cells in vitro; format: cell-based, human; conditions: for LC3 aggregation / LC3 fluorescence (autophagosome formation) versus vehicle: CLL patient cells, 4 hours, rapamycin 5 μM, thapsigargin 1 μM, F-ara-A 5 μM, chlorambucil 20 μM, CAL-101 1 μM, rituximab 10 μg/ml, flavopiridol 2 μM, CQ 0.5 μM
Method: After 4 hours exposure to agents, cells were washed in phosphate-buffered saline (PBS) and made adherent on a microscope slide by centrifugation in a Cytospin3 (Shandon) centrifuge. Immediately after cytospin, cells were fixed in cold acetone. […] Nuclei were stained blue with DAPI (Vector Laboratories, Burlingame, Calif.). Images were taken using a 60× objective and 4× digital zoom with Olympus Fluoview 1000 Laser Scanning Confocal microscope at the Ohio State University Campus Microscopy and Imaging Facility. ATF6 antibody was purchased from LifeSpan Biosciences (Seattle, Wash.) and Nrf2 was from Santa Cruz Biotechnology (Santa Cruz, Calif.). Nuclei were evaluated for ATF6 and Nrf2 using confocal microscopy to collect Z stacks, approximately 45 slices per cell, 0.2 μm each.
LC3 intensity and number of dots per cell were both assessed in the fluorescence images. Integrated intensity was measured using Metamorph v.7.0. To calculate the number of “dots” (local extreme point in pixel-intensity profile at which a number of high-intensity pixels form a cluster), a Gaussian filter was first applied to reduce noise. Cells were enumerated electronically by an improved watershed-based algorithm. To quantify co-localization, two binary nuclei images—red (R) and green (G)—are obtained. The correlation value is calculated as the number of white pixels of (R&G) divided by the number of pixels of (RIG), where (R&G) is the intersection of R and G, and (RIG) is the union of R and G. The program used for cell counts and measurement of correlation index is based on MatLab software (Natick, Mass.) and it was developed by members of Department of Biomedical Informatics, The Ohio State University.

IRE1 = assay: XBP1 splicing (IRE1 activity) PCR in CLL cells; format: cell-based, human
Method: (§2) RNA was extracted using TRIzol reagent (Invitrogen, Carlsbad, Calif.) and purified using QIAGEN RNeasy columns (Qiagen, Valencia, Calif.). cDNA was prepared with SuperScript First-Strand Synthesis System (Invitrogen). Real-time PCR was performed using primers purchased from Applied Biosystems. Detection was performed using an ABI Prism 7700 sequence detection system (Applied Biosystems). Average relative expression (treatment compared with vehicle) was normalized to the internal control gene CD52. Primers to detect spliced XBP1 were designed using Primer 3 software and purchased from IDT. Samples were analyzed on 10% acrylamide gels.

XBP1, IRE1, GRP78 = assay: Real-time RT-PCR of ER stress genes in CLL cells in vitro; format: cell-based, human; conditions: CLL cells n=5; flavopiridol 2 μM, thapsigargin 1 μM, tunicamycin 3 μg/ml; CD52 control gene
Method: as §2

caspases 4 and 8 = assay: Caspase 4 and 8 activity in samples from CLL patients treated with flavopiridol; format: in vivo, human; conditions: 4.5 hours following flavopiridol infusion
Method: The presence of active caspase enzymes was determined by the AFC assay. Briefly, lysates containing approximately 3×10^6 cells were incubated with 50 μM LEVD-AFC (caspase 4 substrate) or LETD-AFC (caspase 8 substrate) from MP Biomedicals (Solon, Ohio) in 2× cytobuffer from BioVision (Exton, Pa.) containing 10 mM dithiothretiol (DTT). Caspase 4 activity was measured one hour after addition of substrate and caspase 8 activity was measured 30 minutes after addition of substrate. Release of free AFC was measured with a Beckman-Coulter DTX 880 multimode detector (Filters: excitation, 405/10 nm; emission, 535/25 nm). Caspase 4 inhibitor Z-YVAD-FMK was purchased from R&D Systems.

IRE1-ASK1-TRAF2 complex = assay: Co-immunoprecipitation of IRE1-ASK1-TRAF2 complex in samples from flavopiridol-treated CLL patients; design: species or system human; conditions: CLL patient cells in vivo following flavopiridol infusion
Method: as §1

Compound: CN1CC[C@H](c2c(O)cc(O)c3c(=O)cc(-c4ccccc4Cl)oc23)[C@H](O)C1 [flavopiridol, (cis-5,7-dihydroxy-2-(2-chlorophenyl)-8-[4-(3-hydroxy-1-methyl)-piperidin-yl]-1-benzopyran-4-one)hydrochloride]
- average increase in LC3 integrated intensity at 4.5 hours after flavopiridol infusion versus pretreatment (CLL cells [1]; CLL patients n=16, all): 2.16 fold
- fold change of LC3 intensity 4.5 hours vs pre-treatment, non-responders (CLL cells [1]; non-responders (N=10)): 2.51 fold
- overall LC3 intensity, non-responders compared to responders (CLL cells [1]; pre- and post-treatment samples, 95% CI 1.07, 1.95): 1.44 times
- fold change of LC3 intensity 4.5 hours vs pre-treatment, responders (CLL cells [1]; responders (N=6)): 1.82 fold
- PERK activity (phosphorylation of eIF2α) (PERK): minimally active
- LC3 fluorescence time course, flavopiridol vs vehicle (CLL cells [2]; CLL cells n=3, flavopiridol washed out after 4 hours): significant (P=0.001) at 3, 4 and 8 hours, and decreased to levels comparable to vehicle alone at 12 and 24 hours
- LC3 aggregation / LC3 fluorescence (autophagosome formation) versus vehicle (CLL cells [2]): formation of autophagosomes was observed
- LC3 aggregation / LC3 fluorescence (autophagosome formation) versus vehicle (CLL cells [2]; listed as Flavopiridol): comparable to the increase seen with rapamycin
- IRE1 activity (splicing of IRE1 substrate XBP1) (IRE1; CLL cells): no evidence of IRE1 activity
- CLL samples with deficiency in XBP1 splicing (IRE1; CLL samples tested): 8 of 10
- expression of ER stress genes XBP1, IRE1 and GRP78 (XBP1, IRE1, GRP78): significant, time-dependent increase in expression of ER stress genes XBP1, IRE1 and GRP78
- patient samples with at least a two-fold increase in activity of caspases 4 and 8 (caspases 4 and 8): 13 of 20
- IRE1 and ASK1 association with TRAF2 (IRE1-ASK1-TRAF2 complex): increase in IRE1 and ASK1 association with TRAF2
